Some test systems named below: A549; CCRF-CEM; EKVX; HCT-15; HOP-62; K562; M14; Malme-3M; NCI-H460; NCI-H522; OVCAR-3; OVCAR-4; UO-31; CAKI-1; RPMI-8226; SNB-75; SR.
What all share (test): NCI-60 cell line screen, 48 h

Experimental findings from ChEMBL document CHEMBL1201862, “PubChem BioAssay data set” (2004) are described below.

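1) Cells in 96-well plates. 2) Compound, 48 h, 5 concentrations. 3) Linear interpolation between surrounding doses. 4) Unreached endpoint = highest concentration. Abbreviation: GI50, concentration required for 50% inhibition of growth.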 Calls of active or inactive are those of the source. No stated cut-off is given here; in the data, active = GI50 up to about 1.1 µM and inactive = higher.

Consider `CCCCCNC(=O)C1C(=O)N(CCCCC)C(=O)/C1=N\N` (centres undefined), for which the GI50 with A549 is 77.6 µM (inactive); with CCRF-CEM, 49.2 µM (inactive); with EKVX it was 86.7 µM (inactive); in the test on HCT-15 it was 59.2 µM; with HOP-62, 35.5 µM (inactive); in the test on K562, 34.4 µM (inactive). Moreover, the GI50 in the test on M14 is 57.9 µM (inactive); in the test with Malme-3M, > 100 µM (inactive); in the test with NCI-H460, 78.5 µM (inactive); in the test with NCI-H522, 31.6 µM (inactive); in the test with OVCAR-3, 46.8 µM (inactive); in the test with OVCAR-4, 61.8 µM (inactive). Besides, the GI50 in the test on UO-31 is 26.8 µM (inactive).
Take `CCOC(=O)/C=C(/CN1C(=O)c2ccccc2C1=O)c1ccccc1`: the GI50 was > 100 µM (inactive) in the test with A549; > 100 µM (inactive) in the test on CAKI-1; > 100 µM (inactive) with CCRF-CEM; > 100 µM (inactive) in the test on EKVX; over 100 µM with HCT-15; > 100 µM (inactive) in the test with HOP-62. The GI50 in the test with K562, with M14, in the test with Malme-3M, with NCI-H460, in the test on NCI-H522 and with OVCAR-3 was > 100 µM (inactive) each time. Moreover, the GI50 in the test with OVCAR-4, in the test on RPMI-8226, in the test with SNB-75 and in the test with UO-31 was > 100 µM (inactive) each time.
Turning to `Cc1ccc(C(=O)C#Cc2cnc(O)nc2O)cc1`, the GI50 with A549 was 18.3 µM (inactive); in the test on CAKI-1 it was 16.9 µM (inactive); in the test with CCRF-CEM it was 3.44 µM (inactive); with EKVX, 17.2 µM (inactive); with HCT-15 it was 13.8 µM; in the test with HOP-62, 29.3 µM (inactive). Besides, the GI50 in the test on K562 was 6.07 µM (inactive); with M14, 13.2 µM (inactive); with Malme-3M it was 5.56 µM (inactive); in the test on NCI-H460, 16.7 µM (inactive); with OVCAR-3 it was 13.5 µM (inactive); with OVCAR-4, 21.8 µM (inactive). For the same compound, the GI50 in the test with SNB-75 was 19.1 µM (inactive); in the test on UO-31 it was 17.4 µM (inactive).
In the case of `CC(C)N(C(=O)C12C3C4C1(I)C1C2C3(I)C41C(=O)N(C(C)C)C(C)C)C(C)C` (centres undefined), the GI50 was > 100 µM (inactive) in the test on A549; > 100 µM (inactive) with CAKI-1; > 41.8 µM (inactive) in the test with CCRF-CEM; > 100 µM (inactive) with EKVX; over 43.3 µM in the test with HCT-15; > 100 µM (inactive) in the test with HOP-62. Besides, the GI50 with K562 was > 43.4 µM (inactive); with M14, > 100 µM (inactive); with Malme-3M, > 100 µM (inactive); in the test with NCI-H460, > 100 µM (inactive); in the test with NCI-H522 it was > 75.9 µM (inactive); with OVCAR-3, > 100 µM (inactive). Besides, the GI50 in the test on OVCAR-4 is > 58.5 µM (inactive); in the test with RPMI-8226, > 52.2 µM (inactive); in the test on SNB-75 it was > 73.1 µM (inactive); with UO-31, > 100 µM (inactive).
In the case of `O=c1[nH]cc(COCC(O)CO)c(=O)[nH]1` (centres undefined), the GI50 in the test on A549 was > 100 µM (inactive); in the test on CAKI-1 it was > 100 µM (inactive); in the test on CCRF-CEM, > 100 µM (inactive); with EKVX, > 100 µM (inactive); in the test with HCT-15, over 100 µM; in the test with HOP-62, > 100 µM (inactive). The GI50 in the test on K562, in the test with M14, with Malme-3M, with NCI-H460, in the test on NCI-H522 and in the test with OVCAR-3 was > 100 µM (inactive) throughout. The GI50 in the test on OVCAR-4, in the test with RPMI-8226, in the test with SNB-75 and with UO-31 was > 100 µM (inactive) throughout.
As to `N#Cc1ccccc1NC(=O)c1ccccc1`, the GI50 was > 100 µM (inactive) in the test with A549; > 100 µM (inactive) with CAKI-1; > 100 µM (inactive) in the test with EKVX; over 100 µM with HCT-15; > 100 µM (inactive) in the test with HOP-62; > 100 µM (inactive) in the test with K562. For the same compound, the GI50 in the test on Malme-3M was > 100 µM (inactive); in the test with NCI-H460, > 100 µM (inactive); in the test on OVCAR-3, > 100 µM (inactive); in the test on OVCAR-4 it was > 100 µM (inactive); in the test on RPMI-8226, > 100 µM (inactive); in the test on SNB-75, 68.5 µM (inactive). Also, the GI50 with SR was > 100 µM (inactive).
Regarding `C=CCc1cc(OC)c(O)c(C(=O)/C=C/c2ccc(OC)c(OC)c2)c1`, the GI50 is 28.9 µM (inactive) with A549; 22.1 µM (inactive) in the test with CAKI-1; 9.98 µM (inactive) in the test on CCRF-CEM; 20.2 µM (inactive) in the test with EKVX; > 10 µM (inactive) in the test with HOP-62; 10.7 µM (inactive) in the test on K562. Further, the GI50 in the test on M14 is 17 µM (inactive); in the test on Malme-3M, 18.6 µM (inactive); with NCI-H460, 30.1 µM (inactive); in the test on NCI-H522, 1.86 µM (inactive); with OVCAR-3 it was 19.3 µM (inactive); in the test with OVCAR-4, 16.2 µM (inactive). Further, the GI50 in the test on RPMI-8226 is 0.67 µM (active); in the test with SNB-75 it was 22.5 µM (inactive); in the test on UO-31, 15.9 µM (inactive).
Consider `O=C1NC(=O)C(=Cc2c3ccccc3cc3ccccc23)C(=O)N1`, for which the GI50 was > 100 µM (inactive) with A549; 47.2 µM (inactive) in the test on CAKI-1; 59.3 µM (inactive) in the test on CCRF-CEM; over 100 µM in the test on HCT-15; > 100 µM (inactive) in the test with HOP-62; 71.3 µM (inactive) with K562. Further, the GI50 with M14 is > 100 µM (inactive); in the test with NCI-H460, > 100 µM (inactive); in the test on NCI-H522 it was > 100 µM (inactive); with RPMI-8226, 31.6 µM (inactive); with UO-31, > 100 µM (inactive).
As for `CC1COS(=O)N1c1ccccc1` (centres undefined), the GI50 in the test on A549 was > 100 µM (inactive); in the test with CCRF-CEM, > 100 µM (inactive); in the test on EKVX it was > 100 µM (inactive); with HCT-15, over 100 µM; in the test with HOP-62, > 100 µM (inactive); in the test on K562 it was > 100 µM (inactive). Also, the GI50 in the test on M14, in the test with Malme-3M, in the test with NCI-H460, in the test on NCI-H522, in the test with OVCAR-4 and with RPMI-8226 was > 100 µM (inactive) throughout. In addition, the GI50 with SNB-75 and in the test with UO-31 was > 100 µM (inactive) in each case.
Turning to `O=C1NC(=O)C(C(=O)C(=O)Nc2cccc(C(F)(F)F)c2)C(=O)N1`, the GI50 in the test with A549 was > 100 µM (inactive); in the test on CAKI-1, > 100 µM (inactive); in the test on CCRF-CEM, > 100 µM (inactive); in the test on EKVX, > 100 µM (inactive); in the test with HCT-15, over 100 µM; with HOP-62, > 100 µM (inactive). Besides, the GI50 with K562, with M14, in the test with Malme-3M, with NCI-H460, in the test on NCI-H522 and in the test on OVCAR-3 was > 100 µM (inactive) each time. Further, the GI50 is > 100 µM (inactive) in the test on OVCAR-4, > 100 µM (inactive) in the test with RPMI-8226, 52.8 µM (inactive) in the test on SNB-75 and > 100 µM (inactive) with UO-31.
For the compound `O=C(O/N=C1/CCCC/C1=C\c1ccccc1)c1ccccc1`, the GI50 in the test on A549 was > 100 µM (inactive); in the test on CCRF-CEM, 36.8 µM (inactive); with EKVX, > 100 µM (inactive); in the test with HCT-15 it was 84.3 µM; in the test on HOP-62 it was > 100 µM (inactive); with K562, 20.8 µM (inactive). Further, the GI50 with M14 is > 100 µM (inactive); in the test on Malme-3M, > 100 µM (inactive); in the test on NCI-H460, > 10 µM (inactive); in the test with NCI-H522 it was 27.7 µM (inactive); in the test on OVCAR-3, > 100 µM (inactive); with RPMI-8226, > 100 µM (inactive). For the same compound, the GI50 is > 100 µM (inactive) in the test with SNB-75, 43.5 µM (inactive) with SR and > 100 µM (inactive) with UO-31.
Turning to `Clc1c(Cl)c2c(Cl)c(Cl)c1C[PH](c1ccccc1)(c1ccccc1)CC[PH](c1ccccc1)(c1ccccc1)Cc1c(Cl)c(Cl)c(c(Cl)c1Cl)C[PH](c1ccccc1)(c1ccccc1)CC[PH](c1ccccc1)(c1ccccc1)C2`, the GI50 in the test with A549 is 3.72 µM (inactive); in the test on CAKI-1, 7.06 µM (inactive); in the test on CCRF-CEM it was 2.46 µM (inactive); with EKVX, 9.08 µM (inactive); in the test with HCT-15, 8.39 µM; in the test on HOP-62, 4.95 µM (inactive). Moreover, the GI50 in the test with K562 is 2.09 µM (inactive); with M14 it was 4.51 µM (inactive); in the test with Malme-3M, 2.38 µM (inactive); in the test with NCI-H460, 2.77 µM (inactive); in the test on NCI-H522 it was 2.56 µM (inactive); in the test with OVCAR-3, 2.66 µM (inactive). For the same compound, the GI50 is 1.11 µM (active) with OVCAR-4, 1.28 µM (inactive) in the test with RPMI-8226, 3.46 µM (inactive) in the test with SNB-75 and 6.49 µM (inactive) in the test with UO-31.
With `CN1CC(C(=O)C2C(=O)c3ccccc3C2=O)C(=O)C(=O)C(C(=O)C2C(=O)c3ccccc3C2=O)C1` (centres undefined), the GI50 in the test on A549 is > 100 µM (inactive); with CAKI-1, > 100 µM (inactive); with CCRF-CEM, > 100 µM (inactive); in the test on HCT-15, over 100 µM; with HOP-62 it was > 10 µM (inactive); in the test on K562, > 100 µM (inactive). Moreover, the GI50 was > 10 µM (inactive) in the test on M14; > 100 µM (inactive) in the test with Malme-3M; > 100 µM (inactive) in the test with NCI-H460; > 100 µM (inactive) in the test with NCI-H522; > 10 µM (inactive) with OVCAR-3; 32.9 µM (inactive) in the test on SNB-75. Further, the GI50 with SR and in the test with UO-31 was > 100 µM (inactive) in each case.
